Results published in the supplement of paper PMC8633005.

Experiments:
Test in all cases: drug sensitivity score (DSS) (DSS (unitless, 0-50 scale)); higher = more sensitive (stronger viability inhibition); extreme values may be limits of the assay
Details in all cases: 72 h; culture: 2D
WM165 = test system: WM165
Outline: (§1)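 Patient-derived melanoma cultures (1000–1500 cells per well) and melanoma cell lines were grown in 2D in 384-well plates holding a 527-compound oncology library. Each compound was dissolved in DMSO or water and tested at five concentrations spanning a 10,000-fold range. After 72 h at 37 °C, viability was read by CellTiter-Glo luminescence. A drug sensitivity score, a modified area-under-curve measure, was derived from dose-response curves fitted in the in-house Breeze software.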

SK-MEL-28 = test system: SK-MEL-28
Outline: as §1

WM852 = test system: WM852
Outline: as §1

Bowes = test system: Bowes
Outline: as §1

FM-MEL-6 = test system: FM-MEL-6
Outline: as §1

SK-MEL-2 = test system: SK-MEL-2
Outline: as §1

FM-MEL-2 = test system: FM-MEL-2
Outline: as §1

FM-MEL-3 = test system: FM-MEL-3
Outline: as §1

| Structure (SMILES) | drug sensitivity score (WM165) | drug sensitivity score (SK-MEL-28) | drug sensitivity score (WM852) | drug sensitivity score (Bowes) | drug sensitivity score (FM-MEL-6) | drug sensitivity score (SK-MEL-2) | drug sensitivity score (FM-MEL-2) | drug sensitivity score (FM-MEL-3) |
| --- | --- | --- | --- | --- | --- | --- | --- | --- |
| O=C(c1ccc(OCCN2CCCCC2)cc1)c1c(-c2ccc(O)cc2)sc2cc(O)ccc12 [Raloxifene] | 2 | 1.3 | 1.9 | 0 | 1.8 | 0 | 2.1 | 4.7 |
| Nc1nc(NC2CC2)cc(-c2cccc(Cl)c2Cl)n1 [TH588] | 0.9 | 0 | 4.3 | 0 | 0 | 0 | 0 | 2.2 |
| CN(C)Cc1c(C(=O)NCCOc2ccc(C(=O)NO)cc2)oc2ccccc12 [Abexinostat] | 17 | 13 | 9.1 | 10 | 14.7 | 15.9 | 15.9 | 14.6 |
| CC(C)[C@@H](CS(=O)(=O)C(C)C)N1C(=O)[C@@](C)(CC(=O)O)C[C@H](c2cccc(Cl)c2)[C@H]1c1ccc(Cl)cc1 [AMG-232] | 19 | 0 | 0 | 0 | 0 | 0 | 1.8 | 10.5 |
| CN1CCN(c2ccc(C(=O)Nc3n[nH]c4ccc(Cc5cc(F)cc(F)c5)cc34)c(NC3CCOCC3)c2)CC1 [Entrectinib] | 0 | 0 | 0 | 0 | 0 | 0 | 0 | 0 |
| C=CC(=O)Nc1cccc(Nc2nc(Nc3ccc(N4CCN(C(C)=O)CC4)cc3OC)ncc2C(F)(F)F)c1 [Rociletinib] | 7.2 | 1.1 | 3 | 7.7 | 3.4 | 2.9 | 6.6 | 7.9 |
| Nc1cccc2c1C(=O)N(C1CCC(=O)NC1=O)C2=O (stereo unspecified) [Pomalidomide] | 0 | 0 | 0 | 0 | 0 | 0 | 0 | 0 |
| O=C(c1cc(Cc2n[nH]c(=O)c3ccccc23)ccc1F)N1CCN(C(=O)C2CC2)CC1 [Olaparib] | 7.5 | 1 | 3.9 | 0.4 | 0 | 0 | 0 | 0 |
| Cc1cc(Nc2nc(N[C@@H](C)c3ncc(F)cn3)ncc2Cl)[nH]n1 [AZD1480] | 0 | 0 | 0 | 0 | 0 | 0 | 0 | 0 |
| CN1CCC(COc2cnc(-c3cccc(Cn4nc(-c5cccc(C#N)c5)ccc4=O)c3)nc2)CC1 [Tepotinib] | 0 | 0 | 0 | 0 | 0 | 0 | 0 | 0 |
| CC[C@@]1(O)C(=O)OCc2c1cc1n(c2=O)Cc2cc3c(CN(C)C)c(O)ccc3nc2-1 [Topotecan] | 25.3 | 8.1 | 1.4 | 6.8 | 8.1 | 8.2 | 6.1 | 11 |
| N#CCNC(=O)c1ccc(-c2ccnc(Nc3ccc(N4CCOCC4)cc3)n2)cc1 [Momelotinib] | 7.2 | 3.7 | 1.9 | 4.1 | 1.1 | 0.2 | 3.7 | 1.2 |
| CC(C)(O)CNc1nc(Nc2ccnc(C(F)(F)F)c2)nc(-c2cccc(C(F)(F)F)n2)n1 [Enasidenib] | 0 | 0 | 0 | 0 | 0 | 1.9 | 3.1 | 0 |
| CNC(=O)c1ccc(N2C(=S)N(c3cnc(C#N)c(C(F)(F)F)c3)C(=O)C23CCC3)cc1F [Apalutamide] | 0 | 0 | 0 | 0 | 0 | 0 | 0 | 0 |
| C=CC(=O)Nc1cc(Nc2nccc(-c3cn(C)c4ccccc34)n2)c(OC)cc1N(C)CCN(C)C [Osimertinib] | 4.3 | 4 | 3.5 | 2.7 | 4.6 | 3.4 | 3.2 | 2.7 |
| C[C@H]1C[C@@H](n2c(Nc3ccc(OC(F)(F)F)cc3)nc3cc(CCC(=O)O)ccc32)CC(C)(C)C1 | 0 | 0 | 0 | 0 | 0 | 0 | 0 | 4.5 |
| COC(=O)N[C@@H](C)CNc1nccc(-c2cn(C(C)C)nc2-c2cc(Cl)cc(NS(C)(=O)=O)c2F)n1 [Encorafenib] | 19.2 | 19.6 | 1.4 | 0.5 | 0 | 1.1 | 1.3 | 1.9 |
| Nc1cc(F)ccc1NC(=O)/C=C/c1cnn(C/C=C/c2ccccc2)c1 [RGFP966] | 0 | 0 | 0 | 1.6 | 1.9 | 0 | 0 | 0.5 |
| Nc1ccn([C@@H]2O[C@H](CO)[C@@H](O)C2(F)F)c(=O)n1 [Gemcitabine] | 18.9 | 13.7 | 0 | 0 | 10.3 | 6.3 | 4.3 | 8.6 |
| CC1(C)CC[C@]2(NC(=O)C(C)(F)F)CC[C@]3(C)[C@H](C(=O)C=C4[C@@]5(C)C=C(C#N)C(=O)C(C)(C)[C@@H]5CC[C@]43C)[C@@H]2C1 [Omaveloxolone] | 20.3 | 15.5 | 11.3 | 18.2 | 13.9 | 15.7 | 11.2 | 17.4 |
| CCC(C)(C)C(=O)O[C@H]1C[C@@H](C)C=C2C=C[C@H](C)[C@H](CC[C@@H]3C[C@@H](O)CC(=O)O3)[C@H]21 [Simvastatin] | 4.5 | 0 | 1 | 2.8 | 0.3 | 0.1 | 0 | 1 |
| CNC(=O)c1ccc(N2C(=S)N(c3ccc(C#N)c(C(F)(F)F)c3)C(=O)C2(C)C)cc1F [Enzalutamide] | 0 | 0 | 0.9 | 0.1 | 0 | 0 | 0.2 | 0.3 |
